The test system of one assay is ABC1 mRNA. The assay can be described thus: Induction of ABC1 mRNA levels in THP-1 macrophages. Particulars: Homo sapiens, ABC-1, 0.10 μM, 6 hours, vs DMSO control, read-out: Fold Induction of ABC1 mRNA (Mean ± SEM). The class given is cell-based. On the procedure:
Induction of ABC1 mRNA levels
Cultured human THP-1 cells were used. All cell culture incubations were performed at 37° C. under 95% air/5% carbon dioxide. Cells were grown in Complete RPMI medium plus 10% FCS (Fetal Calf Serum). Complete RPMI medium is defined as RPMI medium (Sigma Cat.# R8005) containing […], 1 mM Na Pyruvate, 2 mM L-Glutamine, and Antibiotic-Antimyotic Solution (Sigma Cat.# A9909: 100U/ml Penicillin, 0.1 mg/ml Streptomycin, 0.251l/ml Amphotericin B). Cells were differentiated into macrophages by incubation in Complete RPMI medium plus 10% FCS (Fetal Calf Serum) plus 100 nM tetradecanoyl phorbol acetate for three days. After differentiation, the THP-1 macrophages were incubated in Complete RPMI medium plus 10% FCS (Fetal Calf Serum) with the test LXR agonist. After 6 hours at 37° C., the cells were harvested and total RNA prepared using the phenol/guanidine isothiocyanate method as supplied and described by Molecular Research Center, Inc. (TRI REAGENTφ Cat. No. TR 118). ABC1 mRNA levels in the total RNA were measured using the TaqMan® mRNA quantitation system, following protocols published by the manufacturer (Perkin-Elmer). The oligonucleotide PCR primers used to detect ABC1 were:
The oligonucleotide probe used was:
ABC1 mRNA levels in each sample were normalized to the mRNA levels for the 23 kDa highly basic protein. […]

In the next assay the target is T1, human PPARα (Homo sapiens, UniProt Q07869).
T1 sequence (Q07869 1-468): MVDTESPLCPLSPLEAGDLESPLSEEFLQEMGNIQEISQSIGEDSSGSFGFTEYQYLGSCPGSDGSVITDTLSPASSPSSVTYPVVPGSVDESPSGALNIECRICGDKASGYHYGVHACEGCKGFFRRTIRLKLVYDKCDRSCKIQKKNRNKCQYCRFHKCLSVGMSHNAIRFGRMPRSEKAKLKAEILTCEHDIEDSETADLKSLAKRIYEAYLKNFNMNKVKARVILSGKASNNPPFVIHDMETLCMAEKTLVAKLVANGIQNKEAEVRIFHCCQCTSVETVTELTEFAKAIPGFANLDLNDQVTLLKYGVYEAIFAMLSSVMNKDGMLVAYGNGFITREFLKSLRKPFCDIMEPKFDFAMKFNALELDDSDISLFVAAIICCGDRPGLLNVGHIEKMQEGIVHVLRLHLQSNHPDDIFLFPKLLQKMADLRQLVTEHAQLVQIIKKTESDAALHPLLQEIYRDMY
The assay can be described thus: PPARα competition binding assay. An excerpt: (§1) The term ligand throughout this application should be understood to include an agonist, partial agonist or antagonist of LXR. The ligand may be selective for LXRα or LXRβ, or it may have mixed binding affinity for both LXRα and LXRβ. Particularly, compounds within the scope of this invention include those which have greater selectivity as determined by binding affinity for LXRα and/or LXRβ receptors than they have for each of the PPARα, γ and δ receptors.

A further assay has as its target T2, human PPARγ (Homo sapiens, UniProt P37231).
T2 sequence (P37231 1-505): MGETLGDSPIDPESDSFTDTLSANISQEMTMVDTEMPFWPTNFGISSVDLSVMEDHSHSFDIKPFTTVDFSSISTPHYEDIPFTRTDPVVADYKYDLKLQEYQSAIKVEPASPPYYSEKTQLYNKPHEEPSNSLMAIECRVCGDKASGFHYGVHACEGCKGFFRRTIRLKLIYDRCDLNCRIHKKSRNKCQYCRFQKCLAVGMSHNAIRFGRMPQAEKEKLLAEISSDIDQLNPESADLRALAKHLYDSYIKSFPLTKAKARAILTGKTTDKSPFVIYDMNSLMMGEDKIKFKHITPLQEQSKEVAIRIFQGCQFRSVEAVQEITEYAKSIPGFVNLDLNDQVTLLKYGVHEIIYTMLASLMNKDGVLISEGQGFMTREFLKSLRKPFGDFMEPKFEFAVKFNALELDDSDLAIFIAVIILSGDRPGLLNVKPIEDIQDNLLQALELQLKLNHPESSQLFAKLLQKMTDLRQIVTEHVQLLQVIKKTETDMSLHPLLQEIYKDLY
The assay can be described thus: PPARγ competition binding assay.
Excerpt: as §1

Assay [1] concerns the target T3, human GST-LXRβ ligand binding domain receptor (Homo sapiens, UniProt P55055).
T3 construct: human LXRβ (amino acids 149-455) were subcloned into the pGEX-KT expression vector; made in house; host or cells: E. coli (pGEX-KT vector)
T3 sequence (P55055 149-455): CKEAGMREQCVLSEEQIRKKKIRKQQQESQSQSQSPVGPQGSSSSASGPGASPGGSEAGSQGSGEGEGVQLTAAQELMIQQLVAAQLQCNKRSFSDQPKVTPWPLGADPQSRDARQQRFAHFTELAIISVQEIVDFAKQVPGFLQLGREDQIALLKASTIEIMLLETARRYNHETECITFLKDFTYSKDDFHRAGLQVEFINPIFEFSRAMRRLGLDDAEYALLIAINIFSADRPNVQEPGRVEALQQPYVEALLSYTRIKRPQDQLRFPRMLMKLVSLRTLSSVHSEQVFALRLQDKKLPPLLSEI
Nature of the assay: Radioligand competition binding scintillation proximity assay, LXRβ. An excerpt:
Radioligand Competition Binding Scintillation Proximity Assays:
Preparation of Recombinant Human LXRα and LXRβ:
Human LXRα and LXRβ were expressed as GST-fusion proteins in E. coli. The ligand binding domain cDNAs for human LXRα (amino acids 164-447) and human LXRβ (amino acids 149-455) were subcloned into the pGEX-KT expression vector (Pharmacia). E. coli containing the respective plasmids were propagated, induced, and harvested by centrifugation. The resuspended pellet was broken in a French press and debris was removed by centrifugation. Recombinant human LXR receptors were purified by affinity chromatography on glutathione sepharose and receptor was eluted with glutathione. Glycerol was added to a final concentration of 50% to stabilize the receptor and aliquots were stored at −80° C.
After incubation for ˜16 h at 15° C. with shaking, the assay plates were counted in a Packard Topcount.

The term IC50 denotes the concentration needed to halve the response being measured. Low values mean higher potency, high ones lower potency. As a reminder, the Ki is a dissociation constant, usually derived from enzyme kinetics or from competition with a known ligand. On to `CC(=O)Oc1ccc2c(c1)[C@@]1(C)CCC[C@](C)(C(=O)OC(=O)[C@@]3(C)CCC[C@]4(C)c5cc(OC(C)=O)ccc5CC[C@@H]34)[C@@H]1CC2` [Compound 1], for which, in the assay with ABC1 mRNA, the fold induction at 0.1 µM stood at 6.9 ± 0.6. For the same molecule, the IC50 on human PPARα was over 10000 nM; on human PPARγ it was over 10000 nM; in assay [1], 40 nM. Further, the Ki in assay [1] (read-out: LXRβ calculated Ki) is about 14 nM.

These data come from US20030086923A1, “Method for the prevention and/or treatment of atherosclerosis” (priority 1999, published 2003).
